For 13 compounds, Ki results are on record in BindingDB's records for doi:10.1073/pnas.92.8.3298 (Agouron Pharmaceuticals, 1995).

Bounds are passed on as bounds.

The assay has as its target T1, Dimer of Gag-Pol polyprotein [489-587] (Human immunodeficiency virus 1, UniProt P12497).
T1 construct: 489-587
Put plainly: Protease Inhibition Assay. The conditions noted are these: pH 5.6; 37 °C. As to the method: Protease activity was measured by continuous chromogenic assay. The chromogenic peptide His-Lys-Ala-Arg-Val-Leu- (p-NO2-Phe)-Glu-Ala-Nleu-Ser (Bachem) was used as a substrate. Reactions were followed by the decrease of absorbance at 300 nm measured by spectrophotometer. Experimental results were analyzed by the nonlinear regression analysis, using a mathematical model for tight binding inhibitors.

In the case of `CC(C)(C)NC(=O)c1c(CC[C@H](O)Cc2ccc3ccccc3c2C(=O)NC(C)(C)C)ccc2ccccc12` [N-tert-butyl-2-[(3S)-4-[1-(tert-butylcarbamoyl)naphthalen-2-yl]-3-hydroxybutyl]naphthalene-1-carboxamide], affinity was put at a Ki of 481 nM. This lies in the sub-micromolar range. The compound `CC(C)(C)NC(=O)c1ccccc1CCC(O)Cc1ccccc1C(=O)NC(C)(C)C` (stereo not drawn) [2-Butanol deriv. 8] came in with a Ki of 24000 nM. With `CC(C)(C)NC(=O)c1ccccc1SCC(O)Cc1ccccc1C(=O)N(CCO)C(C)(C)C` (stereo not drawn) [Tertiary Amide deriv. 6], affinity was put at a Ki of 34000 nM. In the case of `CC(C)(C)NC(=O)c1ccccc1CC(O)CSc1ccccc1NC(=O)C(C)(C)C` (stereo not drawn) [N-tert-butyl-2-(3-{[2-(2,2-dimethylpropanamido)phenyl]sulfanyl}-2-hydroxypropyl)benzamide], the Ki was more than 100000 nM.

`CC(C)(c1ccccc1)N(CCO)C(=O)c1ccccc1CCC(O)Cc1ccccc1C(=O)N(CCO)C(C)(C)c1ccccc1` (stereo not drawn) [2-(3-hydroxy-4-{2-[(2-hydroxyethyl)(2-phenylpropan-2-yl)carbamoyl]phenyl}butyl)-N-(2-hydroxyethyl)-N-(2-phenylpropan-2-yl)benzamide]: the Ki is 22 nM. `CC(C)(C)N(CCO)C(=O)c1ccccc1CCC(O)Cc1ccccc1C(=O)N(CCO)C(C)(C)c1ccccc1` (stereo not drawn) [N-tert-butyl-2-(3-hydroxy-4-{2-[(2-hydroxyethyl)(2-phenylpropan-2-yl)carbamoyl]phenyl}butyl)-N-(2-hydroxyethyl)benzamide] returned a Ki of 90 nM. `CCC1(N(CCO)C(=O)c2ccccc2CC[C@@H](O)Cc2ccc(C)cc2C(=O)N(CCO)C(C)(C)c2ccccc2)CCCC1` [2-[(2R)-4-{2-[(1-ethylcyclopentyl)(2-hydroxyethyl)carbamoyl]phenyl}-2-hydroxybutyl]-N-(2-hydroxyethyl)-5-methyl-N-(2-phenylpropan-2-yl)benzamide] showed a Ki of 4.8 nM. As for `CCC1(N(CCO)C(=O)c2ccccc2CC[C@H](O)Cc2ccc(C)cc2C(=O)N(CCO)C(C)(C)c2ccccc2)CCCC1` [2-[(2S)-4-{2-[(1-ethylcyclopentyl)(2-hydroxyethyl)carbamoyl]phenyl}-2-hydroxybutyl]-N-(2-hydroxyethyl)-5-methyl-N-(2-phenylpropan-2-yl)benzamide], the figure is 1400 nM; as for `CC(C)(C)NC(=O)c1ccccc1C[C@@H](O)[C@H](Cc1ccccc1)NC(=O)[C@H](CC(N)=O)NC(=O)c1ccc2ccccc2n1` [(2S)-N-[(2S,3R)-4-[2-(tert-butylcarbamoyl)phenyl]-3-hydroxy-1-phenylbutan-2-yl]-2-(quinolin-2-ylformamido)butanediamide], 1.6 nM. Compound `CC(C)(C)NC(=O)c1ccccc1CCC(O)Cc1ccc2ccccc2c1C(=O)NC(C)(C)C` (stereo not drawn) [N-tert-butyl-2-{4-[2-(tert-butylcarbamoyl)phenyl]-2-hydroxybutyl}naphthalene-1-carboxamide] yielded a Ki of 2200 nM. This Ki is about 1400-fold higher than that of the compound before. `CCC1(N(CCO)C(=O)c2ccccc2CCC(O)Cc2ccc(Cl)cc2C(=O)N(CCO)C(C)(C)c2ccccc2)CCCC1` (stereo not drawn) [Tertiary Amide deriv. 43cb]: affinity was put at a Ki of 2 nM. Compared with the last compound, the Ki is about 1100-fold lower. As for `CC(C)(C)NC(=O)c1c(CC[C@@H](O)Cc2ccc3ccccc3c2C(=O)NC(C)(C)C)ccc2ccccc12` [diarylbutanol deriv. 7R], the figure is 25000 nM; as for `CC(C)(C)NC(=O)c1ccccc1CC(O)CSc1ccccc1C(=O)NC(C)(C)C` (stereo not drawn) [N-tert-butyl-2-(3-{[2-(tert-butylcarbamoyl)phenyl]sulfanyl}-2-hydroxypropyl)benzamide], 83000 nM.
